The record followed here is patent US11459339B2, “Biaryl derivative, preparation method thereof and pharmaceutical application thereof” (Abbisko Therapeutics Co., Ltd., priority 2018, dated 2022).

Data set [1] addresses interaction between PD-1 and PD-L1 (Homo sapiens (Human), UniProt Q9NZQ7). Put plainly: PD1-PDL1 HTRF binding activity test (Cisbio PD-1/PD-L1 binding assay kit).
For data set [2], the target named is interaction between PD-1 and PD-L1 expressed on cell surfaces (Homo sapiens (Human), UniProt Q9NZQ7). The experiment in a line: Jurkat reporter gene cellular assay (Jurkat/NF-κB-luc/PD1 cells cocultured with Raji-PD-L1 cells, OKT-3 stimulation). The format is cell-based. In outline:
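EC50 comes from non-linear regression of activation fold (compound reading over DMSO reading) against concentration. Read-out was luciferase signal 6 h after OKT-3-stimulated coculture of PD-1/NF-κB-luc Jurkat cells with PD-L1-expressing Raji cells, 5*10^4 cells each per well.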
For orientation: Reporter assays use an easily measured gene product as a stand-in for the process of interest.

Data set [3] in a line: Pharmacokinetic assay in mice, per oral administration. The format is in vivo. To be noted: ICR mice. An excerpt: C. Pharmacokinetic Assay in Mice
The purpose of this study was to study the pharmacokinetic behaviors of some compounds of the present invention, and administration routes were: per oral administration (PO) to ICR mice:
The compounds used in this test came from the compounds of the specific examples of the present invention.
ICR mice male N=3 original source: Shanghai Sippr-BK Laboratory Animal Co. Ltd.
2.3 Preparation and Administration of Medicaments
The compounds were weighed, and dissolved in solvent of 0.5% SDS+0.5% CMCNa. The mixture solutions were mixed well by shaking and ultrasonic treatment to obtain colorless clear solutions. The solutions were orally administered to nine mice after an overnight fast. The dosage of administration was 10 mg/kg (or 30 mg/kg).
With about 90 μL/time point, blood was drawn from the submaxillary vein, and heparin sodium was added for anticoagulation. The blood samples were placed onto the ice, and were centrifuged (centrifugation conditions: 8000 r/min, 6 min, 2-8° C.) within 1 hr to obtain plasmas. The time points for blood sampling were at 0 hr, 0.25 hr, 0.5 hr, 1 hr, 2 hrs, 4 hrs, 6 hrs, 8 hrs and 24 hrs after administration. The samples were stored in a refrigerator at −20° C.
40 μL of plasma sample was added to 160 μL of cold acetonitrile containing an internal standard, and the mixture solution was vortexed for 3 min and centrifuged at 11,000 r/min for 5 min. 100 μL of supernate was taken and added to 100 μL of water, and 5 μL of the sample was taken and analyzed by LC/MS/MS. Only the original compounds were analyzed for examples 1, 3, 5, 8, 46 and 141 (for results, see table 2); and both the original compounds and possible products of ester hydrolysis, namely example 2, 27, 65 and 105, were analyzed for examples 4, 26, 64 and 104 (for results, see table 3).

Where [4] appears, read: male, mouse, plasma, PO 10 mg/kg, original compound analyzed.
The mark [5] stands for this setting: male, mouse, plasma, PO 10 mg/kg, original compound analyzed, class symbol.
Setting [6] is: male, mouse, PO 10 mg/kg, plasma, original compound analyzed, class symbol, read-out: Cmax.
Where [7] appears, read: read-out: PD1-PDL1 HTRF Binding Activity IC50.
Where [8] appears, read: NF-κB-luc reporter activation fold, 6 hrs, read-out: Cell Activity EC50.
The mark [9] stands for this setting: male, mouse, plasma, PO 30 mg/kg, original compound (ester) analyzed.
Where [10] appears, read: male, mouse, plasma, PO 30 mg/kg, original compound (ester) analyzed, class symbol.
[11] abbreviates: male, mouse, plasma, PO 30 mg/kg, original compound (ester) analyzed, class symbol, read-out: Cmax.
Setting [12] is: product of ester hydrolysis analyzed after PO 30 mg/kg of the ester (2 after 4, 27 after 26, 65 after 64).

Like-named read-outs stand apart in the source and are kept apart here.

Chain of interaction between PD-1 and PD-L1 (Q9NZQ7 19-238): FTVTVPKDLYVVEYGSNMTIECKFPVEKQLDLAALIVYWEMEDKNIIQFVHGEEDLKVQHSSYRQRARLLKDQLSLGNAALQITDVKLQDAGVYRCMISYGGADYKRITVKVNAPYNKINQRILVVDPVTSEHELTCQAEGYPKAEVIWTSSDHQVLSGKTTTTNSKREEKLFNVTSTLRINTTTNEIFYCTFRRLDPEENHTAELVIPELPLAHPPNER
Chain of interaction between PD-1 and PD-L1 expressed on cell surfaces (Q9NZQ7 19-290): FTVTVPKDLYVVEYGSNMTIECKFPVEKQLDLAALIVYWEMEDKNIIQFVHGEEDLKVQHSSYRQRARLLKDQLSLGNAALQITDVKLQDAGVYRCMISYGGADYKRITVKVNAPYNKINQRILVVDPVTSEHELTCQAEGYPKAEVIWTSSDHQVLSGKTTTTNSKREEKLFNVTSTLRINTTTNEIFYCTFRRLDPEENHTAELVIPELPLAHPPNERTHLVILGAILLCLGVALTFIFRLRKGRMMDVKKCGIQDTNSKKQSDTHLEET

Take `Cc1c(NC(=O)c2ccc(CNCCO)cn2)cccc1-c1cccc(NC(=O)c2ccc(CNCCO)cn2)c1C` [Example 1, N,N′-(2,2′-dimethyl-[1,1′-biphenyl]-3,3′-diyl)bis(5-(((2-hydroxyethyl)amino)methyl)picolinamide)]: the IC50 (in general, the point on the concentration scale where inhibition reaches its midpoint) in data set [1] worked out at 0.17 nM. For the same compound, the half-maximal effective concentration (EC50) (in general, the concentration that produces a half-maximal response) in data set [2] worked out at 137 nM. In data set [3] (setting [4]), the mean residence time MRT – broadly, a mean duration of stay, worked out from the concentration-time curve – stood at 3.3 h; the time of peak concentration (Tmax) (usually the time at which the peak concentration occurs) worked out at 1 h; the half-life (in general, the time in which the quantity being followed falls by half) is 2.4 h. For the same compound, the area under the curve AUC(0-t) (in general, the area under the concentration-time curve up to a stated or last time point) in data set [3] (setting [5]) was not above 500 ng·h/mL. In addition, the Cmax (in general, the maximum level reached in the sampled fluid or tissue) in data set [3] (setting [6]) is not above 100 ng/mL.

For the compound `COc1cc(C(=O)Nc2cccc(-c3cccc(NC(=O)c4cc(OC)c(CNCCO)cn4)c3C)c2C)ncc1CNCCO` [Example 3, N,N′-(2,2′-dimethyl-[1,1′-biphenyl]-3,3′-diyl)bis(5-(((2-hydroxyethyl)amino)methyl)-4-methoxypicolinamide)], the half-maximal inhibitory concentration (IC50) in data set [1] (setting [7]) turned out to be 0.2 nM. Besides, the concentration for a half-maximal effect (EC50) in data set [2] (setting [8]) amounted to 37 nM. Besides, in data set [3] (setting [4]), the mean residence time (MRT) came out at 16.7 h, the Tmax was 0.5 h and the half-life is 12.9 h. This compound also registered an AUC(0-t) in data set [3] (setting [5]) of more than 2000 ng·h/mL. For the same compound, the highest concentration (Cmax) in data set [3] (setting [6]) lay in the range of 100 to 500 ng/mL.

With `COC(=O)[C@@H](CO)NCc1cnc(C(=O)Nc2cccc(-c3cccc(NC(=O)c4cc(OC)c(CN[C@H](CO)C(=O)OC)cn4)c3C)c2C)cc1OC` [Example 4, dimethyl 2,2′-((((((2,2′-dimethyl-[1,1′-biphenyl]-3,3′-diyl)bis(azanediyl))bis(carbonyl))bis(4-methoxypyridine-6,3-diyl))bis(methylene))bis(azanediyl))(2R,2′R)-bis(3-hydroxypropanoate)], in data set [1] (setting [7]), the IC50 amounted to 0.064 nM. In data set [2] (setting [8]), the half-maximal effective concentration (EC50) amounted to 1340 nM. Further, the Cmax entry in data set [3] (PO 30 mg/kg, original compound (ester) analyzed) is recorded as “BQL”. Also, the “ester hydrolysis in the bodies of the mice after oral administration” value (“ester hydrolysis in the bodies” below) in data set [3] was “rapidly became corresponding acids”.

Turning to `Cc1cc(C(=O)Nc2cccc(-c3cccc(NC(=O)c4cc(C)c(CNCCO)cn4)c3C)c2C)ncc1CNCCO` [Example 5, N,N′-(2,2′-dimethyl-[1,1′-biphenyl]-3,3′-diyl)bis(5-(((2-hydroxyethyl)amino)methyl)-4-methylpicolinamide)], the half-maximal inhibitory concentration (IC50) in data set [1] (setting [7]) is 0.36 nM. Also, the 50% effective concentration (EC50) in data set [2] (setting [8]) was 64 nM. Moreover, in data set [3] (setting [4]), the AUC(0-t) amounted to 1680 ng·h/mL, the MRT amounted to 10.2 h, the Tmax came to 2 h and the half-life was 8.3 h. The peak concentration (Cmax) in data set [3] (setting [6]) was 100 to 500 ng/mL.

Consider `Cc1cc(C(=O)Nc2cccc(-c3cccc(NC(=O)c4cc(C)c(CNC(CO)CO)cn4)c3C)c2C)ncc1CNC(CO)CO` [Example 8, N,N′-(2,2′-dimethyl-[1,1′-biphenyl]-3,3′-diy)bis(5-(((1,3-dihydroxypropan-2-yl)amino)methyl)-4-methylpicolinamide)], for which the IC50 in data set [1] (setting [7]) was 0.41 nM. In addition, the EC50 in data set [2] (setting [8]) was 186 nM. Also, in data set [3] (setting [4]), the MRT stood at 5.4 h, the time of peak concentration (Tmax) is 2 h and the half-life is 3 h. In addition, the exposure AUC(0-t) in data set [3] (setting [5]) is 500 to 2000 ng·h/mL. For the same compound, the maximum concentration (Cmax) in data set [3] (male, mouse, PO 10 mg/kg, plasma, original compound analyzed, read-out: Cmax) stood at 319 ng/mL.

For `COC(=O)[C@@H]1CCCCN1Cc1cnc(C(=O)Nc2cccc(-c3cccc(NC(=O)c4cc(C)c(CN5CCCC[C@H]5C(=O)OC)cn4)c3C)c2C)cc1C` [Example 26, dimethyl 1,1′-(((((2,2′-dimethyl-[1,1′-biphenyl]-3,3′-diyl)bis (azanediyl))bis(carbonyl))bis (4-methylpyridine-6,3-diyl))bis(methylene))(2S,2′S)-bis (piperidine-2-carboxylate)], the 50% inhibitory concentration (IC50) in data set [1] (setting [7]) is 65.3 nM. Further, in data set [3] (setting [9]), the MRT is 7 h, the time of peak concentration (Tmax) amounted to 6 h and the half-life was 3.6 h. Further, the AUC(0-t) in data set [3] (setting [10]) was more than 2000 ng·h/mL. Moreover, the Cmax in data set [3] (setting [11]) is more than 500 ng/mL. Further, the “ester hydrolysis in the bodies” value in data set [3] was “no product of ester hydrolysis was detected”.

Regarding `Cc1cc(C(=O)Nc2cccc(-c3cccc(NC(=O)c4cc(C)c(CN5CCCC[C@H]5C(=O)O)cn4)c3C)c2C)ncc1CN1CCCC[C@H]1C(=O)O` [Example 27, (2S,2′S)-1,1′-(((((2,2′-dimethyl-[1,1′-biphenyl]-3,3′-diyl)bis(azanediyl))bis(carbonyl))bis(4-methylpyridine-6,3-diyl))bis (methylene))bis(piperidine-2-carboxylic acid)], in data set [1] (setting [7]), the IC50 worked out at 0.28 nM. Besides, in data set [2] (setting [8]), the concentration giving a half-maximal response (EC50) was 128 nM. For the same compound, the Cmax result in data set [3] (setting [12]) is reported as “BQL”.

Turning to `COc1cc(C(=O)Nc2cccc(-c3cccc(NC(=O)c4cc(OC)c(CN5CC(C)(O)C5)cn4)c3C)c2C)ncc1CN1CC(C)(O)C1` [Example 46, N,N'-(2,2′-dimethyl-[1,1′-biphenyl]-3,3′-diyl)bis(5-((3-hydroxy-3-methylazetidin-1-yl)methyl)-4-methoxypicolinamide)], in data set [1] (setting [7]), the IC50 was 0.25 nM. Besides, the EC50 in data set [2] (setting [8]) turned out to be 64 nM. For the same compound, in data set [3] (setting [4]), the mean residence time MRT came out at 15.5 h, the Tmax stood at 4 h and the half-life is 10.7 h. In data set [3] (setting [5]), the AUC(0-t) fell in the range of 500 to 2000 ng·h/mL. In addition, in data set [3] (setting [6]), the Cmax is not above 100 ng/mL.

`COC(=O)[C@@H]1CCCCN1Cc1cnc(C(=O)Nc2cccc(-c3cccc(NC(=O)c4cc(OC)c(CN5CCCC[C@H]5C(=O)OC)cn4)c3C)c2C)cc1OC` [Example 64]: the half-maximal inhibitory concentration (IC50) in data set [1] (setting [7]) was 10.7 nM. Besides, the EC50 in data set [2] (setting [8]) stood at 1860 nM. In addition, in data set [3] (setting [9]), the mean residence time (MRT) was 4.6 h, the time of peak concentration (Tmax) is 2 h and the half-life was 3.7 h. Also, the AUC(0-t) in data set [3] (setting [10]) is more than 2000 ng·h/mL. The Cmax in data set [3] (setting [11]) was more than 500 ng/mL. For the same compound, in data set [3], the “ester hydrolysis in the bodies” value is “no product of ester hydrolysis was detected”.

As to `COc1cc(C(=O)Nc2cccc(-c3cccc(NC(=O)c4cc(OC)c(CN5CCCC[C@H]5C(=O)O)cn4)c3C)c2C)ncc1CN1CCCC[C@H]1C(=O)O` [Example 65, (2S,2S)-1,1′-(((((2,2′-dimethyl-[1,1′-bipheny]-3,3′-diyl)bis(azanediyl))bis(carbonyl))bis(4-methoxypyridine-6,3-diyl))bis(methylene))bis(piperidine-2-carboxylic acid)], in data set [1] (setting [7]), the IC50 came to 0.12 nM. Further, the concentration giving a half-maximal response (EC50) in data set [2] (setting [8]) worked out at 132 nM. In addition, the peak concentration (Cmax) result in data set [3] (setting [12]) is “BQL”.

Turning to `Cc1c(NC(=O)c2cc(C3CC3)c(CNC[C@@H]3CCC(=O)N3)cn2)cccc1-c1cccc(NC(=O)c2cc(C3CC3)c(CNC[C@@H]3CCC(=O)N3)cn2)c1C` [Example 137, N,N′-(2,2′-dimethyl-[1,1′-biplienyl]-3,3′-diyl)bis(4-cyclopropyl-5-(((((S)-5-oxopyrrolidin-2-yl)methyl)amino)methyl)picolinamide)], the 50% inhibitory concentration (IC50) in data set [1] (setting [7]) came out at 2.07 nM. Moreover, in data set [2] (setting [8]), the concentration for a half-maximal effect (EC50) was 108 nM.

As to `Cc1c(NC(=O)c2cc(C3CC3)c(CNCCF)cn2)cccc1-c1cccc(NC(=O)c2cc(C3CC3)c(CNCCF)cn2)c1C` [Example 138, N,N′-(2,2′-dimethyl-[1,1′-biphenyl]-3,3′-diyl)bis(4-cyclopropyl-5-(((2-fluoroethyl)amino)methyl)picolinamide)], in data set [1] (setting [7]), the IC50 was 5.03 nM. Besides, the concentration for a half-maximal effect (EC50) in data set [2] (setting [8]) amounted to 581 nM.

In the case of `Cc1c(NC(=O)c2cc(C3CC3)c(CNCC(F)F)cn2)cccc1-c1cccc(NC(=O)c2cc(C3CC3)c(CNCC(F)F)cn2)c1C` [Example 139, N,N′-(2,2′-dimethyl-[1,1′-biphenyl]-3,3′-diyl)bis(4-cyclopropyl-5-(((2,2-difluoroethyl)amino)methyl)picolinamide)], the half-maximal inhibitory concentration (IC50) in data set [1] (setting [7]) was found to be 120 nM. The half-maximal effective concentration (EC50) in data set [2] (setting [8]) is more than 10000 nM.

Take `Cc1c(NC(=O)c2cc(C3CC3)c(CNCC(F)(F)F)cn2)cccc1-c1cccc(NC(=O)c2cc(C3CC3)c(CNCC(F)(F)F)cn2)c1C` [Example 140, N,N′-(2,2′-dimethyl-[1,1′-biphenyl]-3,3′-diyl)bis(4-cyclopropyl-5-(((2,2,2-trifluoroethyl)amino)methyl)picolinamide)]: the IC50 in data set [1] (setting [7]) is 15.1 nM. Also, the 50% effective concentration (EC50) in data set [2] (setting [8]) came out at 2710 nM.

As to `Cc1cc(C(=O)Nc2cccc(-c3ccccc3)c2C)ncc1CNCCO` [Positive compound, reference compound], in data set [1] (setting [7]), the IC50 came to 2.4 nM. In addition, the 50% effective concentration (EC50) in data set [2] (setting [8]) was more than 10000 nM.
